Values quoted from earlier work as cited in US20050049232A1, “Composition” (priority 2001, published 2005).

System: androgenic alopecia patients
Settings: topical solutions, alone or in combination with skin penetration enhancers such as DMSO

For Nc1cc(N2CCCCC2)nc(N)[n+]1[O-] [minoxidil, 2,4-diamino-6-piperidino-pyrimidine-3-oxide], the “patients with moderate to dense regrowth of hair” value is given as “less than 40%”.
